Reference: ChEMBL document CHEMBL1159203, “Agelastatins C and D, new pentacyclic bromopyrroles from the sponge Cymbastela sp., and potent arthropod toxicity of (-)-agelastatin A” (J Nat Prod, 1998)

Test system: Artemia franciscana
Test: Toxicity against Artemia franciscana nauplii larvae
Format: organism-based
Details: in vivo

CN1C(=O)N[C@@]2(O)[C@@H]3NC(=O)c4ccc(Br)n4[C@@H]3C[C@@]12O
LC50: 220 ppm
